Data taken from patent publication US20120020958A1, “FIBCD1 FOR THE PREVENTION AND TREATMENT OF DISEASES” (Dansk Universitet, priority 2008, published 2012).
Changes are numbered by the printed parent chain. Numbers in names are those of the source.

Columns and labels:
[1] = system: mice; conditions: cited from earlier work
[2] = system: spleen cells isolated from the ragweed-immunized mice; conditions: ragweed/chitin stimulation, 3 days; cited from earlier work
[3] = target: T1, FIBCD1 (the FReD of FIBCD1) (Homo sapiens, UniProt Q8N539); assay: Pull-down assay of FIBCD1 (FReD) with insoluble polysaccharides; assay type: binding; conditions: 20 μg FIBCD1 FReD, 2 mg insoluble substance
T1 construct: 20 μg of the FIBCD1 (the FReD of FIBCD1)
T1 sequence (Q8N539 235-458 limits assumed): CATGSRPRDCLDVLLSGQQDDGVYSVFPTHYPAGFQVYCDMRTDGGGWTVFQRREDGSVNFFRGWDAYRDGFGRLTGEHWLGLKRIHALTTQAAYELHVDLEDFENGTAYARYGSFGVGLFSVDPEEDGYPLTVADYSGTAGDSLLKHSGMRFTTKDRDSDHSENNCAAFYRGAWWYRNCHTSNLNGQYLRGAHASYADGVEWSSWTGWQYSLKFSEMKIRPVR
Experimental: (B) Microtiterplates were coated with LTA, mannan, peptidoglycan or NAc-BSA and increasing concentrations of FIBCD1 was added. (C) Pull-down assays where 20 μg of the FIBCD1 (the FReD of FIBCD1) or as a positive control 20 μg of wheat germ agglutinin (WGA) was added to 2 mg insoluble chitin, cellulose, zymozane or beta-glucan. […] BSA was used as control. Pellet fractions were analyzed by SDS-PAGE and Coomassie blue staining.

[4] = system: allergic mouse model; conditions: oral administration; cited from earlier work
[5] = target: T2, acetylated BSA (Bos taurus, UniProt P02769); assay: Binding of mutated forms of the FReD of FIBCD1 to acetylated BSA (ELISA); conditions: site directed mutagenesis of FIBCD1 FReD
T2 construct: purchased Sigma
Experimental: Microtiter plates were coated with acetylated BSA or BSA and blocked with TBS/Tw before being incubated with FIBCD1 samples diluted in TBS/Tw (5 mM CaCl2). The FIBCD1 samples were added from 1 μg/ml in a twofold dilution series. The signal from binding of protein to BSA was subtracted from the signal from binding to acetylated BSA. The resulting normalized signals were then expressed as a percentage of the signal from FIBCD1FReD at 1 μg/ml, which was set at 100%. The experiment was repeated three times.
Generation of HEK293 and CHO cells expressing recombinant forms of FIBCD1 In order to generate cells expressing recombinant forms of FIBCD1, the Flp-In™ system (Invitrogen) was utilized. In this system the cDNA is integrated into a specific genomic site. Flp-In™ T-REx™ HEK293 cells or CHO Flp-In™ T-REx™ (Invitrogen) was used as host cells. HEK293 cells were cultured in Dulbecco's modified Eagle medium (DMEM; Invitrogen) and CHO cells in Hams F12 medium (Invitrogen) both containing penicillin (100 units/ml), streptomycin (100 μg/ml), 2 mM L-glutamine and 10% fetal bovine serum (Invitrogen). At approximately 50% confluency, cells were co-transfected (ratio 1:9) with the pSecTag/FRT/V5-His TOPO® TA or pcDNA/FRT/V5-His TOPO® TA containing the FIBCD1 construct and the pOG44 vector encoding Flp recombinase, using the jetPEI™ transfection kit (Polyplus-transfection SAS, Illkirch cedex, France). The recombinase mediates insertion of the expression vectors into the genomic integration site. Integration of the vectors confers hygromycin resistance. Thus, 48 hours after transfection the HEK293 and CHO cells were selected for stable integration of the FIBCD1 constructs with 150 μg/ml and 800 μg/ml hygromycin B (Invitrogen), respectively. Hygromycin resistant clones were obtained after two weeks of culture. At confluence cells were transferred to DMEM or Hams F12 medium without serum. Supernatants were harvested after 72 hours of expression and analyzed by SDS-PAGE and Western blotting. […]

T2 sequence (P02769 25-607): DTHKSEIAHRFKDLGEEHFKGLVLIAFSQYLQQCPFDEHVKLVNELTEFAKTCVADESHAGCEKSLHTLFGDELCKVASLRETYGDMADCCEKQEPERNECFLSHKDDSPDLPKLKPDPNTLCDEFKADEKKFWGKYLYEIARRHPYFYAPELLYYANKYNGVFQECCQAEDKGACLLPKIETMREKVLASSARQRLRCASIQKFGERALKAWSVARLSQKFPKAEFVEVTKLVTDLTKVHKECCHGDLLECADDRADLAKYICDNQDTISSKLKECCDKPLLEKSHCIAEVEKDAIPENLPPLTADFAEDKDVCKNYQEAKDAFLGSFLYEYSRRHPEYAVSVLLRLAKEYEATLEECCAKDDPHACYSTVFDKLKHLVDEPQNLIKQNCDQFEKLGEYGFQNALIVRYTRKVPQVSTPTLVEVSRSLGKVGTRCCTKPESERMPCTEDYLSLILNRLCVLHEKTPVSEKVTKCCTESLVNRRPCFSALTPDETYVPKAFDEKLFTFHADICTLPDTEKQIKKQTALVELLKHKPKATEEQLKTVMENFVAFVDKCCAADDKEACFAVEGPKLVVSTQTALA

AMCase: acidic mammalian chitinase, an endo-β-1,3... see b8: endo-β-1,4-N-acetylglucosaminidase
chitin-induced cell infiltration ([1]; pre-treatment with AMCase): inhibited

chitin
accumulation of IL-4 and IL-13 expressing cells including Th2 cells, eosinophils and basophils ([1]; instilled in the lung (or given intraperitoneally)): induced the accumulation | IFN-γ production [2]: increase | IL-4 levels [2]: significant decreases | IL-5 levels [2]: significant decreases | IL-10 levels [2]: significant decreases | binding of FIBCD1 in pull-down [3]: detected | lung eosinophilia [4]: down-regulates | serum IgE levels [4]: down-regulates

B1: H415G: single mutation form of the FReD of FIBCD1 (protein)
chain: ATGSRPRDCLDVLLSGQQDDGVYSVFPTHYPAGFQVYCDMRTDGGGWTVFQRREDGSVNFFRGWDAYRDGFGRLTGEHWLGLKRIHALTTQAAYELHVDLEDFENGTAYARYGSFGVGLFSVDPEEDGYPLTVADYSGTAGDSLLKHSGMRFTTKDRDSDHSENNCAAFYRGAWWYRNCGTSNLNGQYLRGAHASYADGVEWSSWTGWQYSLKFSEMKIRPVREDR
binding of mutated FIBCD1 to NAc-BSA [5]: completely arrogate

B2: A432V: single mutation form of the FReD of FIBCD1 (protein)
chain: B1 chain with G180H, A197V
binding of mutated FIBCD1 to NAc-BSA [5]: completely arrogate

B3: W443S: single mutation form of the FReD of FIBCD1 (protein)
chain: B1 chain with G180H, W208S
binding of mutated FIBCD1 to NAc-BSA [5]: partially arrogated
